Data as given in PMC6270409, “Synthesis and Anti-Influenza Virus Activities of a Novel Class of Gastrodin Derivatives” (Molecules, 2013).
Where two headings read alike, the source gives them in different places. Marks after values point to notes of the source that are not given here.

Legend:
[1] = test system: influenza A/FM/1/47(H1N1); assay: microbe, parasite or virus in culture; format: cell-based, influenza A virus
[2] = test system: influenza A/Hanfang/359/95(H3N2); assay: microbe, parasite or virus in culture; format: cell-based, influenza A virus
[3] = test system: influenza B (B/Jifang/13/97); assay: Anti-influenza CPE assay in MDCK cells, oseltamivir-null B/Jifang/13/97; format: cell-based; conditions: Influenza B virus, read-out: IC50 B/Jifang/13/97
[4] = test system: influenza virus M2 protein expression; format: cell-based, influenza virus A/Wuhan/359/95
[5] = test system: MDCK cells; assay: Cytotoxicity assay in MDCK cells monitored by CPE; conditions: 48 h, Table 1
[6] = test system: viral hemagglutinin; assay: Hemagglutination inhibition assay; format: biochemical, influenza virus; conditions: 2 fold serial diluted from 40 μg/mL, chicken erythrocytes
[7] = test system: influenza A/FM/1/47-MA (H1N1) virus; format: in vivo, mice; conditions: for numbers of surviving animals: survivors/total; for Mean lung score / Lung consolidation: day 6 post-virus exposure; for Lung consolidation: score 0-4; for Mean day to death: b.i.d x 7, mean survival time of mice dying on or before day 14
[8] = test system: neuraminidase of the two influenza virus A strain; assay: Neuraminidase inhibition assay (MUNANA), two influenza A strains; format: biochemical; conditions: MUNANA substrate

`COC(=O)c1ccc(O[C@@H]2O[C@H](COC(C)=O)[C@H](OC(C)=O)[C@H](OC(C)=O)[C@H]2OC(C)=O)c(F)c1` [Compound 7b, Methyl 3-fluoro-4-((2S,3R,4S,5S,6R)-3,4,5-triacetoxy-6-(acetoxymethyl)-tetrahydro-2H-pyran-2-yloxy)benzoate] showed a melting point of 121 to 123 °C, an IC50 ([1]; Influenza A virus, H1N1, MDCK) of 133 µM and an IC50 ([2]; Influenza A virus, H3N2, MDCK) of over 133 µM.
In the case of `COC(=O)c1c(OC)cc(O[C@@H]2O[C@H](COC(C)=O)[C@@H](OC(C)=O)[C@H](OC(C)=O)[C@H]2OC(C)=O)cc1OC` [Compound 2a, Methyl 2,6-dimethoxy-4-((2S,3R,4S,5R,6R)-3,4,5-triacetoxy-6-(acetoxymethyl)-tetrahydro-2H-pyran-2-yloxy)benzoate], the melting point is reported as 121 to 123 °C, the IC50 [3] is reported as 6.25 µM and the IC50 ([1]; Influenza A virus, H1N1, MDCK) is reported as 11.6 µM. For the same molecule, the IC50 ([2]; Influenza A virus, H3N2, MDCK) was over 13.7 µM.
For `NC12CC3CC(CC(C3)C1)C2` [Amantadine], the “effect on influenza virus M2 protein expression” value [4] was “significantly inhibited”.
Molecule `COC(=O)c1c(F)cccc1O[C@@H]1O[C@H](COC(C)=O)[C@@H](OC(C)=O)[C@H](OC(C)=O)[C@H]1OC(C)=O` [Compound 9a, Methyl 2-fluoro-6-((2S,3R,4S,5R,6R)-3,4,5-triacetoxy-6-(acetoxymethyl)-tetrahydro-2H-pyran-2-yloxy)benzoate] has a melting point of 130 to 132 °C, an IC50 [3] of over 44.4 µM and an IC50 ([1]; Influenza A virus, H1N1, MDCK) of 34.5 µM. It also gave an IC50 ([2]; Influenza A virus, H3N2, MDCK) of over 44.4 µM.
With `COC(=O)c1c(F)cccc1O[C@@H]1O[C@H](COC(C)=O)[C@H](OC(C)=O)[C@H](OC(C)=O)[C@H]1OC(C)=O` [Compound 9b, Methyl 2-fluoro-6-((2S,3R,4S,5S,6R)-3,4,5-triacetoxy-6-(acetoxymethyl)-tetrahydro-2H-pyran-2-yloxy)benzoate] the melting point was 130 to 132 °C, the IC50 [3] was over 133 µM and the IC50 ([1]; Influenza A virus, H1N1, MDCK) was 66.6 µM. It also gave an IC50 ([2]; Influenza A virus, H3N2, MDCK) of over 133 µM.
In the case of “Methyl 4-((2S,3R,4S,5R,6R)-3,4,5-triacetoxy-6-(acetoxymethyl)-tetrahydro-2H-pyran-2-yloxy)benzoate [Compound 5a]”, the TC50 [5] is reported as 232.53 µM, the IC50 [1] is reported as over 134 µM and the IC50 [2] is reported as 93.6 µM.
“Ethyl 4-fluoro-2-((2S,3R,4S,5R,6R)-3,4,5-triacetoxy-6-(acetoxymethyl)-tetrahydro-2H-pyran-2-yloxy)-benzoate [Compound 8a]” gave a TC50 [5] of 277.10 µM, an IC50 [1] of 83.7 µM and an IC50 [2] of 44.4 µM.
Work on `OCc1ccc(O[C@@H]2O[C@H](CO)[C@@H](O)[C@H](O)[C@H]2O)cc1` [Gastrodin] yielded a TC50 [5] of over 698.62 µM, an IC50 ([1]; Influenza A virus, H1N1, MDCK) of over 232 µM and an IC50 ([2]; Influenza A virus, H3N2, MDCK) of 161 µM.
In the case of `COC(=O)c1ccc(F)c(O[C@@H]2O[C@H](COC(C)=O)[C@@H](OC(C)=O)[C@H](OC(C)=O)[C@H]2OC(C)=O)c1` [Compound 1a, Methyl 4-fluoro-3-((2S,3R,4S,5R,6R)-3,4,5-triacetoxy-6-(acetoxymethyl)-tetrahydro-2H-pyran-2-yloxy)benzoate], the IC50 [3] is reported as 33 µM, the “inhibitory effect on hemagglutination” value [6] is reported as “did not show an inhibitory effect” and the “numbers of surviving animals” value ([7]; 40 mg/kg/day intragastrically) is reported as 1/10. The Mean lung score ([7]; 40 mg/kg/day po) was 2.61 ± 0.85, the Lung consolidation ([7]; 40 mg/kg/day po) was 3.56 and the “numbers of surviving animals” value ([7]; 80 mg/kg/day intragastrically) was 6/10. The “Mean day to death” value ([7]; 80 mg/kg/day po) was 11.3 days, the Mean lung score ([7]; 80 mg/kg/day po) was 1.82 ± 0.82 and the Lung consolidation ([7]; 80 mg/kg/day po) was 2.25. The IC50 [1] was 34.5 µM, the IC50 ([1]; Influenza A virus, H1N1, MDCK) was 34.4 µM and the “effect on influenza virus M2 protein expression” value ([4]; MDCK cells infected with A/Wuhan/359/95, 300TCID50, 24 hours post infection) was “no effect”. For the same molecule, the IC50 ([2]; Influenza A virus, H3N2, MDCK) was 44.4 µM and the IC50 on neuraminidase [8] was over 40 µg/mL.
`CC(=O)OC[C@H]1O[C@@H](Oc2cccc(F)c2C)[C@H](OC(C)=O)[C@@H](OC(C)=O)[C@@H]1OC(C)=O` [Compound 10a, (2R,3R,4S,5R,6S)-2-(Acetoxymethyl)-6-(3-fluoro-2-methylphenoxy)-tetrahydro-2H-pyran-3,4,5-triyl triacetate] gave a melting point of 127 to 129 °C, an IC50 ([1]; Influenza A virus, H1N1, MDCK) of over 146 µM and an IC50 ([2]; Influenza A virus, H3N2, MDCK) of over 146 µM.
`CC(=O)OC[C@H]1O[C@@H](Oc2cccc(F)c2C)[C@H](OC(C)=O)[C@@H](OC(C)=O)[C@H]1OC(C)=O` [Compound 10b, (2R,3S,4S,5R,6S)-2-(Acetoxymethyl)-6-(3-fluoro-2-methylphenoxy)-tetrahydro-2H-pyran-3,4,5-triyl triacetate] gave a melting point of 127 to 129 °C, an IC50 [3] of 39.4 µM and an IC50 ([1]; Influenza A virus, H1N1, MDCK) of over 52.2 µM. For the same molecule, the IC50 ([2]; Influenza A virus, H3N2, MDCK) was 48.7 µM.
With `COC(=O)c1ccc(F)c(O[C@@H]2O[C@H](COC(C)=O)[C@H](OC(C)=O)[C@H](OC(C)=O)[C@H]2OC(C)=O)c1` [Compound 1b, Methyl 4-fluoro-3-((2S,3R,4S,5S,6R)-3,4,5-triacetoxy-6-(acetoxymethyl)-tetrahydro-2H-pyran-2-yloxy)benzoate] the IC50 ([1]; Influenza A virus, H1N1, MDCK) was over 133 µM and the IC50 ([2]; Influenza A virus, H3N2, MDCK) was 92.4 µM.
For `COC(=O)c1ccc(F)c(O)c1` [Compound 1, Methyl 4-fluoro-3-hydroxybenzoate], the TC50 [5] was over 1175.50 µM, the “IC50 A/FM/1/47” value [1] was “no activity” and the IC50 ([1]; Influenza A virus, H1N1, MDCK) was over 392 µM. For the same molecule, the “IC50 A/Hanfang/359/95” value [2] was “no activity” and the IC50 ([2]; Influenza A virus, H3N2, MDCK) was over 1180 µM.
For `OCc1ccc(F)c(O[C@@H]2O[C@H](CO)[C@@H](O)[C@H](O)[C@H]2O)c1` [Compound 14a, (2S,3R,4S,5S,6R)-2-(2-Fluoro-5-(hydroxymethyl)phenoxy)-6-(hydroxymethyl)-tetrahydro-2H-pyran-3,4,5-triol], the TC50 [5] was over 657.31 µM, the IC50 ([1]; Influenza A virus, H1N1, MDCK) was over 657 µM and the IC50 ([2]; Influenza A virus, H3N2, MDCK) was over 657 µM.
`CC(=O)OC[C@H]1O[C@@H](Oc2ccncc2)[C@H](OC(C)=O)[C@@H](OC(C)=O)[C@@H]1OC(C)=O` [Compound 11a, (2R,3R,4S,5R,6S)-2-(Acetoxymethyl)-6-(pyridin-4-yloxy)-tetrahydro-2H-pyran-3,4,5-triyl triacetate] showed a melting point of 132 to 134 °C, an IC50 [3] of over 52.2 µM and an IC50 ([1]; Influenza A virus, H1N1, MDCK) of 52.2 µM. For the same molecule, the IC50 ([2]; Influenza A virus, H3N2, MDCK) was 40.5 µM.
For `CC(=O)OCc1ccc(F)c(O[C@@H]2O[C@H](COC(C)=O)[C@@H](OC(C)=O)[C@H](OC(C)=O)[C@H]2OC(C)=O)c1` [Compound 13a, (2R,3R,4S,5R,6S)-2-(Acetoxymethyl)-6-(5-(acetoxymethyl)-2-fluorophenoxy)-tetrahydro-2H-pyran-3,4,5-triyl triacetate], the IC50 ([1]; Influenza A virus, H1N1, MDCK) was over 130 µM and the IC50 ([2]; Influenza A virus, H3N2, MDCK) was over 130 µM.
In the case of `CCOC(=O)C1=C[C@@H](OC(CC)CC)[C@H](NC(C)=O)[C@@H](N)C1` [Oseltamivir, reference compound], the IC50 [3] is reported as over 100 µM, the IC50 ([1]; Influenza A virus, H1N1, MDCK) is reported as 57.5 µM and the “effect on influenza virus M2 protein expression” value [4] is reported as “has inhibitory effect”. The IC50 ([2]; Influenza A virus, H3N2, MDCK) was 2.08 µM.
`CC(=O)OC[C@H]1O[C@@H](Oc2ncccc2F)[C@H](OC(C)=O)[C@@H](OC(C)=O)[C@@H]1OC(C)=O` [Compound 12a, (2R,3R,4S,5R,6S)-2-(Acetoxymethyl)-6-(3-fluoropyridin-2-yloxy)-tetrahydro-2H-pyran-3,4,5-triyl triacetate] showed a melting point of 140 to 142 °C, an IC50 [3] of over 50.1 µM and an IC50 ([1]; Influenza A virus, H1N1, MDCK) of 25.2 µM. For the same molecule, the IC50 ([2]; Influenza A virus, H3N2, MDCK) was over 50.1 µM.
For `COC(=O)c1ccc(N)c(O[C@@H]2O[C@H](COC(C)=O)[C@@H](OC(C)=O)[C@H](OC(C)=O)[C@H]2OC(C)=O)c1` [Compound 4a, Methyl 4-amino-3-((2S,3R,4S,5R,6R)-3,4,5-triacetoxy-6-(acetoxymethyl)-tetrahydro-2H-pyran-2-yloxy)benzoate], the melting point was 126 to 128 °C, the IC50 ([1]; Influenza A virus, H1N1, MDCK) was 119 µM and the IC50 ([2]; Influenza A virus, H3N2, MDCK) was over 134 µM.
Molecule `COC(=O)c1ccc(O[C@@H]2O[C@H](COC(C)=O)[C@@H](OC(C)=O)[C@H](OC(C)=O)[C@H]2OC(C)=O)c(F)c1` [Compound 7a, Methyl 3-fluoro-4-((2S,3R,4S,5R,6R)-3,4,5-triacetoxy-6-(acetoxymethyl)-tetrahydro-2H-pyran-2-yloxy)benzoate] has a melting point of 121 to 123 °C, an IC50 ([1]; Influenza A virus, H1N1, MDCK) of over 133 µM and an IC50 ([2]; Influenza A virus, H3N2, MDCK) of 103 µM.
`COC(=O)c1ccc(F)cc1O[C@@H]1O[C@H](COC(C)=O)[C@H](OC(C)=O)[C@H](OC(C)=O)[C@H]1OC(C)=O` [Compound 8b, Methyl 4-fluoro-2-((2S,3R,4S,5S,6R)-3,4,5-triacetoxy-6-(acetoxymethyl)-tetrahydro-2H-pyran-2-yloxy)benzoate] showed a melting point of 136 to 138 °C, a TC50 [5] of over 399.66 µM and an IC50 ([1]; Influenza A virus, H1N1, MDCK) of over 400 µM. The IC50 ([2]; Influenza A virus, H3N2, MDCK) was over 400 µM.
Molecule `COC(=O)c1cccc(O[C@@H]2O[C@H](COC(C)=O)[C@H](OC(C)=O)[C@H](OC(C)=O)[C@H]2OC(C)=O)c1` [Compound 6b, Methyl 3-((2S,3R,4S,5S,6R)-3,4,5-triacetoxy-6-(acetoxymethyl)-tetrahydro-2H-pyran-2-yloxy)benzoate] has a melting point of 154 to 156 °C, an IC50 ([1]; Influenza A virus, H1N1, MDCK) of over 138 µM and an IC50 ([2]; Influenza A virus, H3N2, MDCK) of over 138 µM.
In the case of “Ethyl 3,5-dichloro-4-((2S,3R,4S,5R,6R)-3,4,5-triacetoxy-6-(acetoxymethyl)-tetrahydro-2H-pyran-2-yloxy)benzoate [Compound 3a]”, the TC50 [5] is reported as over 362.77 µM, the IC50 [1] is reported as over 363 µM and the IC50 [2] is reported as over 363 µM.
In the case of `NC(=O)c1ncn([C@@H]2O[C@H](CO)[C@@H](O)[C@H]2O)n1` [Ribavirin, reference compound], the IC50 [3] is reported as 11.4 µM, the “Mean day to death” value ([7]; 100 mg/kg/day po) is reported as 14.0 * days and the Mean lung score ([7]; 100 mg/kg/day po) is reported as 1.31 ± 0.34. The Lung consolidation ([7]; 100 mg/kg/day po) was 0.50 *, the “% Survivors” value ([7]; mouse, in vivo) was 100 (10/10) % and the IC50 ([1]; Influenza A virus, H1N1, MDCK) was 13.5 µM. For the same molecule, the “effect on influenza virus M2 protein expression” value [4] was “significant inhibitory effect”, the “influenza virus induced cytopathic effect” value ([2]; 10 μg/mL, strain not given) was “completely inhibits” and the IC50 ([2]; Influenza A virus, H3N2, MDCK) was 11.9 µM.
